Values of other authors in patent US20230287038A1, “PURIFIED SAPONINS AND CHROMATOGRAPHIC PROCESS FOR PURIFICATION OF SAME” (ACCESS TO ADVANCED HEALTH INSTITUTE, priority 2020, published 2023).

Legend:
[1] = system: antigens bovine serum albumin and cytochrome b5; conditions: mice
[2] = aqueous solution
[3] = system: unconjugated bacterial polysaccharides; conditions: including unconjugated bacterial polysaccharides
[4] = reversed-phase chromatography fractions of saponin extract

QS-21
antibody response to bovine serum albumin and cytochrome b5 [1]: stimulate potent antibody responses | pH at which hydrolysis of the fatty acyl ester bond (de-acylation) is minimized [2]: ~5.5 | antibody response to T-independent antigens [3]: enhance antibody responses | adjuvant activity [4]: identified with adjuvant activity

QS-17
antibody response to bovine serum albumin and cytochrome b5 [1]: stimulate potent antibody responses | adjuvant activity [4]: identified with adjuvant activity

QS-18
antibody response to bovine serum albumin and cytochrome b5 [1]: stimulate potent antibody responses | adjuvant activity [4]: identified with adjuvant activity
